Read-outs that look alike come from different tables or passages of the source. Where only a bound is given, the exact number is not on record here.

For this test, the system named is PMA-differentiated THP-1 cells. The test can be described thus: IL-1β production in PMA-differentiated THP-1 cells stimulated with gramicidin (hTHP-1 assay containing 2% fetal bovine serum; Procedures 1 and 2). The format is cell-based, human. The following applies: 2% fetal bovine serum. An outline of the steps: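 Secreted IL-1β, read by HTRF, after gramicidin challenge (5 μM, 2 h) of THP-1 cells differentiated with PMA (20 ng/ml, 16-18 h) and plated at 50,000 cells/well in 2% FBS medium. Compounds, 0.0017-100 μM final with 0.37% DMSO, were added 1 h before stimulation.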

Setting [1] is: Homo sapiens, THP-1, Table B3, hTHP-1 assay, class symbols, read-out: IC50.
Where [2] appears, read: Table B2, class symbols, read-out: hTHP-1 IC50.
Where [3] appears, read: Homo sapiens, THP-1, Table B1, class symbols, read-out: Average IC50 of compounds in hTHP-1 assay: hTHP-1 IC50.
The mark [4] stands for this setting: Homo sapiens, THP-1, Table B2, numeric bounds, read-out: hTHP-1 IC50.
The mark [5] stands for this setting: Homo sapiens, THP-1, Table B2, class symbols, read-out: hTHP-1 IC50.
The mark [6] stands for this setting: Table B1, numeric bounds, read-out: Average IC50 of compounds in hTHP-1 assay: hTHP-1 IC50.

One may read the IC50 as the concentration needed to halve the response being measured. Turning to `CCn1cc(F)c(S(N)(=O)=NC(=O)Nc2c(C)c(C3CC3)nc3c2CCC3)n1` (stereo not shown) [Example 637, N′-((2-cyclopropyl-3-methyl-6,7-dihydro-5H-cyclopenta[b]pyridin-4-yl)carbamoyl)-1-ethyl-4-fluoro-1H-pyrazole-3-sulfonimidamide], the half-maximal inhibitory concentration (IC50) under setting [1] lay within 0.2 to 1 µM. `C[C@@H]1CCc2c1nc1c(c2NC(=O)N=S(N)(=O)c2ccn(C(C)(F)F)n2)CCC1` (single isomer, unassigned) [Compound 723b, (R) or (S)-1-(1,1-Difluoroethyl)-N′-(((R)-3-methyl-1,2,3,5,6,7-hexahydrodicyclopenta [b,e]pyridin-8-yl)carbamoyl)-1H-pyrazole-3-sulfonimidamide]: under setting [2], the half-inhibitory concentration (IC50) lay in the range of 0.04 to 0.2 µM. For the compound `CC1CCc2c1nc1c(c2NC(=O)N=S(N)(=O)c2cnn(C(C)C)c2)CCC1` (stereo not shown) [Compound 171, 1-isopropyl-N′-((3-methyl-1,2,3,5,6,7-hexahydrodicyclopenta[b,e]pyridin-8-yl)carbamoyl)-1H-pyrazole-4-sulfonimidamide], the 50% inhibitory concentration (IC50) under setting [3] lay within 1 to 5 µM. Turning to `CCc1c(C(F)(F)F)nc2c(c1NC(=O)N=S(N)(=O)c1nn(CC)cc1F)CCC2` (stereo not shown) [Example 743, 1-Ethyl-N′-((3-ethyl-2-(trifluoromethyl)-6,7-dihydro-5H-cyclopenta[b]pyridin-4-yl)carbamoyl)-4-fluoro-1H-pyrazole-3-sulfonimidamide], for the setting “Homo sapiens, THP-1, Table B4, class symbols, read-out: hTHP-1 IC50”, the IC50 lay within 1 to 5 µM.

Take `CC1CCc2c1nc1c(c2NC(=O)N=S(N)(=O)c2cc(C(C)(C)O)cs2)CCC1C` [Compound 131a, (R,S,S) and (R,R,R)-N′-((3,5-dimethyl-1,2,3,5,6,7-hexa-hydrodicyclo-penta[b,e]pyridin-8-yl)carbamoyl)-4-(2-hy-droxypropan-2-yl)thiophene-2-sulfonimidamide]: the concentration for half-maximal inhibition (IC50) (Table B1, class symbols, read-out: Average IC50 of compounds in hTHP-1 assay: hTHP-1 IC50) fell in the range of 0.2 to 1 µM. On to `CC(C)(O)c1cc(F)c(S(N)(=O)=NC(=O)Nc2c3c(nc4c2CCC42CC2)CCC3)s1` (stereo not shown) [Compound 101, 3-fluoro-5-(2-hydroxypropan-2-yl)-N′-((1′,5′,6′,7′-tetrahydro-2′H-spiro[cyclopropane-1,3′-dicyclopenta[b,e]pyridin]-8′-yl)carbamoyl)thiophene-2-sulfonimidamide], for which the 50% inhibitory concentration (IC50) under setting [3] lay in the range of 0.04 to 0.2 µM. Regarding `C[C@@](O)(CO)c1cc(F)c([S@](N)(=O)=NC(=O)Nc2c3c(nc4c2CCC42CC2)CCC3)s1` [Example 676, (R)-5-((R)-1,2-dihydroxypropan-2-yl)-3-fluoro-N′-((1′,5′,6′,7′-tetrahydro-2′H-spiro[cyclopropane-1,3′-dicyclopenta[b,e]pyridin]-8′-yl)carbamoyl)thiophene-2-sulfonimidamide], under setting [1], the IC50 fell in the range of 0.2 to 1 µM. On the same count and under the same terms, the figure for `CC(C)(O)c1ncc([S@](N)(=O)=NC(=O)Nc2c3c(nc(CC(F)(F)F)c2C2CC2)CCC3)s1` [Example 578, (R)-N′-((3-cyclopropyl-2-(2,2,2-trifluoroethyl)-6,7-dihydro-5H-cyclopenta[b]pyridin-4-yl)carbamoyl)-2-(2-hydroxypropan-2-yl)thiazole-5-sulfonimidamide] is 1 to 5 µM. As to `CC1(C)CCc2c1nc1c(c2NC(=O)N=S(N)(=O)c2sc(C(C)(O)CO)cc2F)CCC1` (single isomer, unassigned) [Compound 699a, (S, S) and (R, S) or (S, R) and (R, R)-5-(1,2-Dihydroxypropan-2-yl)-N′-((3,3-dimethyl-1,2,3,5,6,7-hexahydrodicyclopenta [b,e]pyridin-8-yl)carbamoyl)-3-fluorotliophene-2-sulfonimidamide], the IC50 under setting [4] is above 30 µM. Consider `Cc1nc2c(c(NC(=O)N=S(N)(=O)c3cc(C(C)(C)O)cs3)c1C(C)C)CCC2` (single isomer, unassigned) [Compound 622a, (S) or (R)-4-(2-Hydroxypropan-2-yl)-N′-((3-isopropyl-2-methyl-6,7-dihydro-5H-cyclopenta[b]pyridin-4-yl)carbamoyl) thiophene-2-sulfonimidamide], for which, under setting [2], the IC50 was 5 to 30 µM. Turning to `CCn1cc(F)c(S(N)(=O)=NC(=O)Nc2c3c(nc(C4CC4)c2C2CC2)CCC3)n1` (stereo not shown) [Example 618, N′-((2,3-dicyclopropyl-6,7-dihydro-5H-cyclopenta[b]pyridin-4-yl)carbamoyl)-1-ethyl-4-fluoro-1H-pyrazole-3-sulfonimidamide], under setting [1], the IC50 was 0.04 to 0.2 µM. In the case of `Cc1nc2c(c(NC(=O)N=S(N)(=O)c3cnc(C(C)(C)O)s3)c1C(C)C)CCC2` (single isomer, unassigned) [Compound 116b, (R) or (S)-2-(2-hydroxypropan-2-yl)-N′-((3-isopropyl-2-methyl-6,7-dihydro-5H-cyclopenta[b]pyridin-4-yl)carbamoyl)thiazole-5-sulfonimidamide], the half-maximal inhibitory concentration (IC50) under setting [3] was 5 to 30 µM.

Consider `Cc1c(C2(F)CC2)nc2c(c1NC(=O)N=S(N)(=O)c1sc(C(C)(C)O)cc1F)CCC2` (stereo not shown) [Compound 733], for which the IC50 under setting [5] is 1 to 5 µM. For `CC(C)(O)c1ncc(S(N)(=O)=NC(=O)Nc2cc(-c3ccccc3)nc3c2CCC3)s1` (stereo not shown) [Compound 142, 2-(2-hydroxypropan-2-yl)-N′-((2-phenyl-6,7-dihydro-5H-cyclopenta[b]pyridin-4-yl)carbamoyl)thiazole-5-sulfonimidamide], the half-inhibitory concentration (IC50) (Homo sapiens, THP-1, Table B1, numeric bounds, read-out: Average IC50 of compounds in hTHP-1 assay: hTHP-1 IC50) was above 30 µM.

As for `Cc1c(C2CC2)nc2c(c1NC(=O)N=S(N)(=O)c1sc(C(C)(C)O)nc1CO)CCC2` (stereo not shown) [Compound 679, N′-((2-cyclopropyl-3-methyl-6,7-dihydro-5H-cyclopenta[b]pyridin-4-yl)carbamoyl)-4-(hydroxymethyl)-2-(2-hydroxypropan-2-yl)thiazole-5-sulfonimidamide], the half-inhibitory concentration (IC50) under setting [5] lay in the range of 5 to 30 µM. `Cc1nc2c(c(NC(=O)N=[S@@](N)(=O)c3cnc(C(C)(C)O)s3)c1C1CC1)CCC2` [Example 581, (R)-N′-((3-cyclopropyl-2-methyl-6,7-dihydro-5H-cyclopenta[b]pyridin-4-yl)carbamoyl)-2-(2-hydroxypropan-2-yl)thiazole-5-sulfonimidamide]: under “Homo sapiens, THP-1, Table B3, hTHP-1 assay, numeric values, read-out: IC50”, the half-maximal inhibitory concentration (IC50) was above 30 µM. Take `CC(C)(O)c1cc(F)c(S(N)(=O)=NC(=O)Nc2c3c(nc4c2CCC4)CCC3)s1` (stereo not shown) [Compound 105, 3-fluoro-N′-((1,2,3,5,6,7-hexahydrodicyclopenta[b,e]pyridin-8-yl)carbamoyl)-5-(2-hydroxypropan-2-yl)thiophene-2-sulfonimidamide]: the IC50 under setting [3] was 0.04 to 0.2 µM.

For `CC(O)c1nc(C(C)(C)O)sc1S(=N)(=O)NC(=O)Nc1c2c(nc3c1CCC3)CCC2` (stereo not shown) [Compound 643, N-((1,2,3,5,6,7-hexahydrodicyclopenta[b,e]pyridin-8-yl)carbamoyl)-4-(1-hydroxyethyl)-2-(2-hydroxypropan-2-yl)thiazole-5-sulfonimidamide], the IC50 under setting [2] is 5 to 30 µM. With `Cc1c(C(F)(F)F)nc2c(c1NC(=O)N=S(N)(=O)c1cnc(C(C)(O)CO)s1)CCC2` (single isomer, unassigned) [Compound 605b, (R, R) and (S, R) or (R, S) and (S, S)-2-(l,2-Dihydroxypropan-2-yl)-N′-((3-methyl-2-(trifluoromethyl)-6,7-dihydro-5H-cyclopenta[b]pyridin-4-yl)carbamoyl) thiazole-5-sulfonimidamide], the IC50 under setting [2] fell in the range of 0.2 to 1 µM. Regarding `CC1CCc2c1nc1c(c2NC(=O)N=S(N)(=O)c2ccc(CN(C)C)cc2)CCC1` (single isomer, unassigned) [Compound 134ab, (S,R) or (S,S)-4-((di-methylamino)methyl)-N′-((3-methyl-1,2,3,5,6,7-hexa-hydrodicyclo-penta[b,e]pyridin-8-yl)carbamoyl)benzene-sulfonimidamide], under setting [6], the half-maximal inhibitory concentration (IC50) was above 30 µM. Regarding `CC(C)(O)c1cc(Br)c(S(N)(=O)=NC(=O)Nc2c3c(nc4c2CCC4)CCC3)s1` (single isomer, unassigned) [Compound 690a, (S) or (R)-3-Bromo-N′-((1,2,3,5,6,7-hexahydrodicyclopenta [b,e]pyridin-8-yl)carbamoyl)-5-(2-hydroxypropan-2-yl)thiophene-2-sulfonamidamide], the IC50 under setting [4] is above 30 µM. With `CCn1cc(F)c(S(N)(=O)=NC(=O)Nc2c3c(nc4c2CCC42CC2)CCC3)n1` (single isomer, unassigned) [Example 672, (S) or (R)-1-ethyl-4-fluoro-N′-((1′,5′,6′,7′-tetrahydro-2′H-spiro[cyclopropane-1,3'-dicyclopenta[b,e]pyridin]-8′-yl)carbamoyl)-1H-pyrazole-3-sulfonimidamide], for the setting “Table B3, hTHP-1 assay, class symbols, read-out: IC50”, the half-inhibitory concentration (IC50) was 1 to 5 µM. In the case of `CC(C)(O)c1ncc(S(N)(=O)=NC(=O)Nc2cc(-c3ccccc3)nc3c2CCC3)s1` (single isomer, unassigned) [Compound 142b, (S) or (R)-2-(2-hydroxy-propan-2-yl)-N′-((2-phenyl-6,7-dihydro-5H-cyclopenta[b]pyridin-4-yl)carbamoyl)thiazole-5-sulfonimidamide], under setting [6], the IC50 was above 30 µM.

Take `COCc1nc(C(C)(C)O)sc1S(N)(=O)=NC(=O)Nc1c2c(nc3c1CCC3(C)C)CCC2` (single isomer, unassigned) [Compound 170a]: the IC50 under setting [2] fell in the range of 0.2 to 1 µM. In the case of `CCn1ccc(S(N)(=O)=NC(=O)Nc2c3c(nc(C4CC4)c2C2CC2)CCC3)n1` (stereo not shown) [Example 632, N′-((2,3-dicyclopropyl-6,7-dihydro-5H-cyclopenta[b]pyridin-4-yl)carbamoyl)-1-ethyl-1H-pyrazole-3-sulfonimidamide], the 50% inhibitory concentration (IC50) under setting [1] was 1 to 5 µM.
